From patent publication US20160074301A1, “ANTI-AGING SKIN CARE COMPOSITIONS AND REGIMENS” (The Procter & Gamble Company, priority 2014, published 2016)

Legend:
[1] = test system: "Clear and Detox" module genes; assay: Eigengene of "Clear and Detox" co-expression module (FIG. 8); conditions: cultured human keratinocytes
[2] = test system: skin barrier formation; assay: Eigengene analysis, skin barrier formation, treated cultured human keratinocytes; type: cell-based
[3] = test system: "Repair and Rebuild" associated genes; assay: Eigengene of "Repair and Rebuild" co-expression module (FIG. 9); conditions: cultured human keratinocytes

| Substance | effect on "Clear and Detox" eigengene (FIG. 8) [1] | successful aging effect in skin barrier formation [2] | effect on "Repair and Rebuild" eigengene (FIG. 9) [3] |
| --- | --- | --- | --- |
| palmitoyl-lysine-threonine [Pal-KT] | significantly up-regulates | Effects relating to successful aging were also identified |  |
| palmitoyl-lysine-threonine-threonine-lysine-serine [Pal-KTTKS] |  |  | significantly up-regulate |
